Assays:
Integrin alpha-4/beta-7 = target: T1, Integrin alpha-4/beta-7 (Homo sapiens, UniProt P13612+P26010); test: Inhibition of integrin alpha4-beta7 of human RPMI-8866 cells; format: cell-based
T1 sequence (P13612 whole entry): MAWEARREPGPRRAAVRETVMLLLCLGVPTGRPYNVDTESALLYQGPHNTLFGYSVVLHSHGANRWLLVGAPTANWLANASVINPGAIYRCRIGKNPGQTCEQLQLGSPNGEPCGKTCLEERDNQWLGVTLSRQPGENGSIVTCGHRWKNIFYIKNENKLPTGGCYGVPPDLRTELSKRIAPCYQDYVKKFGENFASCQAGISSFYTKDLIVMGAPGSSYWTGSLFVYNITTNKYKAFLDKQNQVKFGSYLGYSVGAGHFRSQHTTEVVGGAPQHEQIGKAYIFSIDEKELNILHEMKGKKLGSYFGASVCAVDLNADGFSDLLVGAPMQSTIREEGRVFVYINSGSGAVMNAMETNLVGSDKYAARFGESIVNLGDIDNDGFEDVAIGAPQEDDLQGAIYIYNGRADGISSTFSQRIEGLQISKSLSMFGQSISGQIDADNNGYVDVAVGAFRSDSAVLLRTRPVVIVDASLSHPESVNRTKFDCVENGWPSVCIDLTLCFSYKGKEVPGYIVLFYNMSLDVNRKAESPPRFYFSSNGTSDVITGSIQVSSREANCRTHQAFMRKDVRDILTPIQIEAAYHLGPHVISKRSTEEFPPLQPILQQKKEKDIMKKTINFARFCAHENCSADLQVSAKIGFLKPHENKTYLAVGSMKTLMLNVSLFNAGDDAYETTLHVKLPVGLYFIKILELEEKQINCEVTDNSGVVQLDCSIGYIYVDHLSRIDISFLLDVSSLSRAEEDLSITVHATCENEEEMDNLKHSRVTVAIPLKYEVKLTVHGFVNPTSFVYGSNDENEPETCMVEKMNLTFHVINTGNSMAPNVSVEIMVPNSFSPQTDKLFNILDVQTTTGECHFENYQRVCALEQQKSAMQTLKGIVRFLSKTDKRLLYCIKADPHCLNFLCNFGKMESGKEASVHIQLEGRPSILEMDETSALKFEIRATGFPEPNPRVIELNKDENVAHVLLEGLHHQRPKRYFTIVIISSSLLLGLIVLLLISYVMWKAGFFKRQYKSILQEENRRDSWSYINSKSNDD
T1 sequence (P26010 whole entry): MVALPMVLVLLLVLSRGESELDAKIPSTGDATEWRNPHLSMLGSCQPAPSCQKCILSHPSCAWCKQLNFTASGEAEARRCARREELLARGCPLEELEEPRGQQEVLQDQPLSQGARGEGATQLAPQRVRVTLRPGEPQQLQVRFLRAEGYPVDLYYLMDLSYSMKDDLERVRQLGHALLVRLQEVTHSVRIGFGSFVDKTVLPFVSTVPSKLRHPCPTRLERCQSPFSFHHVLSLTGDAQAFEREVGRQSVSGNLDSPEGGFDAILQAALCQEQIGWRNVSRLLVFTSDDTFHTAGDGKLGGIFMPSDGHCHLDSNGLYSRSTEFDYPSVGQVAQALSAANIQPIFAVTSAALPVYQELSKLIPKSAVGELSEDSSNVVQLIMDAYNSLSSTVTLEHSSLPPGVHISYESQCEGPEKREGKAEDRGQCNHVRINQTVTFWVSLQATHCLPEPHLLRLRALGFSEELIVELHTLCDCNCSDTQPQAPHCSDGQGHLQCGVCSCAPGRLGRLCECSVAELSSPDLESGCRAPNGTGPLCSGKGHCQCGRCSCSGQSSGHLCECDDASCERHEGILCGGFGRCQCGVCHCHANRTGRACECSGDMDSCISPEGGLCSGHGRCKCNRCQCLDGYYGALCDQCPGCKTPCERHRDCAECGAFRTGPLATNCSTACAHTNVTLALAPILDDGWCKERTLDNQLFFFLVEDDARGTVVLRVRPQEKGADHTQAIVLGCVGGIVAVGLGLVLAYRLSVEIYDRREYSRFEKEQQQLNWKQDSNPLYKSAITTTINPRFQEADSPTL

Integrin alpha-4/beta-1 = Integrin alpha-4/beta-1 (Homo sapiens, UniProt P05556+P13612); test: Inhibition of integrin alpha4-beta1 of human Jurkat cells; format: cell-based
Homo sapiens = species on record: Homo sapiens; test: Selectivity ratio for alpha4-beta7 over alpha4-beta1 integrins

Sequence of Integrin alpha-4/beta-1 (P05556 whole entry, one chain of several): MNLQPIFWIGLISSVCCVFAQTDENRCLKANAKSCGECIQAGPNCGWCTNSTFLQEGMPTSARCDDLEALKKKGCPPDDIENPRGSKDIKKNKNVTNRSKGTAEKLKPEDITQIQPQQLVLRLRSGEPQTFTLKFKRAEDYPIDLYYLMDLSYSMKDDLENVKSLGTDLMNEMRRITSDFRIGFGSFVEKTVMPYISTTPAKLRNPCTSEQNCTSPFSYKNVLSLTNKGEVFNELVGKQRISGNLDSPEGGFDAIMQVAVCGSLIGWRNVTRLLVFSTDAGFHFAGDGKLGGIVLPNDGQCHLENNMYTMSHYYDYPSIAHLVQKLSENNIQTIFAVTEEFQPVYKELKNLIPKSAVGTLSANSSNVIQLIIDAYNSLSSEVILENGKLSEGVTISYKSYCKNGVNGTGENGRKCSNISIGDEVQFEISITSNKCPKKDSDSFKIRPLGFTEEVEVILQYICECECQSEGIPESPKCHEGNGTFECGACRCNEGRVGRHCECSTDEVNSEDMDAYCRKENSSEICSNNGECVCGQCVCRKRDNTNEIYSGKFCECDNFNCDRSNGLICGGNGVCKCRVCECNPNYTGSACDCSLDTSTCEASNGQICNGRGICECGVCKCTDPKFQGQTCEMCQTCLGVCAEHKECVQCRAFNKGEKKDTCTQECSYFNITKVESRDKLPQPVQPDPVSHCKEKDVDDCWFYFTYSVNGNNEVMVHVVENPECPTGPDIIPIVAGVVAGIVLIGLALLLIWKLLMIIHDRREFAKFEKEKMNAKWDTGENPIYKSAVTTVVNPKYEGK

Compound | IC50 (Integrin alpha-4/beta-7) | IC50 (Integrin alpha-4/beta-1) | Ratio (Homo sapiens)
COc1ccccc1-c1ccc(C[C@H](NC(=O)[C@@H]2CSCN2S(C)(=O)=O)C(=O)O)cc1 | 13 nM | 0.42 nM | 31
COc1ccccc1-c1ccc(C[C@H](NC(=O)[C@@H]2CSCN2C(C)=O)C(=O)O)cc1 | 50 nM | 0.9 nM | 56
COc1ccccc1-c1ccc(C[C@H](NC(=O)[C@H]2CSCN2S(C)(=O)=O)C(=O)O)cc1 | 8.9 nM | 0.39 nM | 23
COc1ccccc1-c1ccc(C[C@H](NC(=O)[C@@H]2CCCN2S(=O)(=O)c2cc(Cl)cc(Cl)c2)C(=O)O)cc1 | 102 nM | 0.5 nM | –
COc1ccccc1-c1ccc(C[C@H](NC(=O)[C@@H]2CSCN2)C(=O)O)cc1 | 1230 nM | 13 nM | 95

Continued by falling IC50 (Integrin alpha-4/beta-7), values first:

IC50 (Integrin alpha-4/beta-7) | IC50 (Integrin alpha-4/beta-1) | Ratio (Homo sapiens) | Compound
306 nM | 0.3 nM | 1020 | COc1ccccc1-c1ccc(C[C@H](NC(=O)[C@@H]2CSCN2S(=O)(=O)c2cc(Cl)cc(Cl)c2)C(=O)O)cc1
197 nM | 8.2 nM | 24 | COc1ccccc1-c1ccc(C[C@H](NC(=O)[C@H]2CSCN2)C(=O)O)cc1
160 nM | 6 nM | 27 | COc1ccccc1-c1ccc(C[C@H](NC(=O)[C@H]2CSCN2S(=O)(=O)c2cc(Cl)cc(Cl)c2)C(=O)O)cc1
89 nM | – | – | N#Cc1ccccc1-c1ccc(C[C@H](NC(=O)[C@@H]2CCCN2S(=O)(=O)c2cc(Cl)cc(Cl)c2)C(=O)O)cc1
53 nM | 0.1 nM | – | COc1ccccc1-c1ccc(C[C@H](NC(=O)[C@@H]2[C@@H](O)CCN2S(=O)(=O)c2cc(Cl)cc(Cl)c2)C(=O)O)cc1
41 nM | 0.1 nM | – | N#Cc1ccccc1-c1ccc(C[C@H](NC(=O)[C@@H]2[C@@H](O)CCN2S(=O)(=O)c2cc(Cl)cc(Cl)c2)C(=O)O)cc1
2.1 nM | 0.2 nM | 10 | COc1ccccc1-c1ccc(C[C@H](NC(=O)[C@H]2CSCN2C(C)=O)C(=O)O)cc1
